These results are taken from US7282507B2, “Indole derivatives as selective androgen receptor modulators (SARMS)” (Janssen Pharmaceutica N.V., priority 2004, dated 2007).

For assay [1], the target named is T1, androgen receptor (AdEasy+rAR, COS-7 cells) (Rattus norvegicus, UniProt P15207).
T1 construct: expressed in transfected cells; host or cells: COS-7 cells transduced with adenovirus AdEasy+rAR
T1 sequence (P15207 1-902): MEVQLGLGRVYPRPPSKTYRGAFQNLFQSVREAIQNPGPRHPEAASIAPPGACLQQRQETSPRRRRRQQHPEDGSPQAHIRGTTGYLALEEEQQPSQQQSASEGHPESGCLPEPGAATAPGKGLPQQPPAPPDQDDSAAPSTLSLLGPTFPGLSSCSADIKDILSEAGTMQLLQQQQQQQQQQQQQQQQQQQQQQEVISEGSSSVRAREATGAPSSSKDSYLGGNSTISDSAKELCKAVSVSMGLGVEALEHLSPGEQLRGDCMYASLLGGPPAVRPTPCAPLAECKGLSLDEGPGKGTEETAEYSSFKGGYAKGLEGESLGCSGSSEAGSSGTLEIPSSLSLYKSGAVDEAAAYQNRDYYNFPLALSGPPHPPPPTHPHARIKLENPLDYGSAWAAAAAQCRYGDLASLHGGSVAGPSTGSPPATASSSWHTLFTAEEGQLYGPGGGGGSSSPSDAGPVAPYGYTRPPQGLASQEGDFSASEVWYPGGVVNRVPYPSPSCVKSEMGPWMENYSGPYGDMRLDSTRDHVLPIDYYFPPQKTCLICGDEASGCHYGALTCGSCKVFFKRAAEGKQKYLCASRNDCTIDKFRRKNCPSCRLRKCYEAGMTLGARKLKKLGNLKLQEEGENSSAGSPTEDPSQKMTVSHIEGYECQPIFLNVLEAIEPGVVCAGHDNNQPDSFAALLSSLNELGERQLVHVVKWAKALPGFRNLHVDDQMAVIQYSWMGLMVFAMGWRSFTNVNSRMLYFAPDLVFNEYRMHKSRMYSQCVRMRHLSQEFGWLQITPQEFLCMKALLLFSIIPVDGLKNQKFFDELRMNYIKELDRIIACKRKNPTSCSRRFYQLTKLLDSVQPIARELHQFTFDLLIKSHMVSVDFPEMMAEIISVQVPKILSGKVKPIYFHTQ
The experiment in a line: COS-7 Whole-Cell Androgen Receptor Binding Assay, Adenovirus Transduction. Conditions: for inhibition at 3 µM / % Inhibition, COS Binding: concentration of 3000 nM; for % Inhibition, COS Binding: 3 µM. The procedure: COS-7 cells were plated in 96-well plates at 20,000 cells per well, in a solution of DMEM/F12 (GIBCO) containing 10% (v/v) charcoal-treated fetal bovine serum (Hyclone) and lacking phenol red. The cells were then incubated overnight at 37° C. in 5% (v/v) humidified CO2.
Test compound solutions were prepared by diluting the test compound in 100% (v/v) DMSO, if necessary.
Next, 1 mL of DMEM/F12 lacking phenol red was pipetted into each of the wells of a 2-mL 96-well assay block. […] The wells were carefully mixed by pipette.
In a 15 mL or 50 mL sterile centrifuge tube, a dilution in DMEM/F12 of the adenovirus AdEasy+rAR at a moi of 1:50 per well was prepared.
The medium was removed from the 96-well plates by inversion and the plates dried very briefly, inverted, on a sterile towel. As soon as possible after medium removal, 40 μL of the diluted test compound was added to each well, in duplicate. […] The plates were then incubated for 48 hours at 37° C. in 5% (v/v) humidified CO2.
The medium was removed from the above incubated plates by inversion and dried. Each well was then washed with 0.35 mL of 1× PBS. The PBS was then removed from the plates by inversion and the plates dried.
To each well was then added 50 μL of 0.5% (v/v) Triton X-100 (Sigma) in 1× PBS and the plates placed on a rotary shaker for 5 min. The contents of each well were then transferred to an OptiPlate-96 (Packard) scintillation plate. To each well was then added 0.2 mL of Microscint-20 (Packard) and the wells counted on a TopCount (Packard).
Percent inhibition was determined by testing dilutions of the test compound (usually duplicates of 10 μM) in the binding assay. Counts per well were measured and percents of inhibition determined. […] Counts per well were measured and IC50s determined by linear regression.

For assay [2], the target named is T2, androgen receptor (AdEasy+rAR, L929 cells) (Rattus norvegicus, UniProt P15207).
T2 construct: expressed in transfected cells; host or cells: L929 cells transduced with adenovirus AdEasy+rAR
T2 sequence (P15207 1-902): T1 sequence (P15207 1-902)
The experiment in a line: L929 Androgen Receptor Functional Assay, Adenovirus Transduction. The format is cell-based. Conditions: for inhibition at 3 µM: L929, antagonist testing with R1881, 3000 nM; for % Activity, L929 androgen receptor functional assay / EC50: agonist testing; for IC50: antagonist testing with R1881. A digest of the protocol:
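L929 cells in phenol red-free, charcoal-stripped serum medium transduced with AdEasy+rAR (moi 1:500) and exposed 48 h at 37 °C to compound alone (agonist mode) or with R1881 (antagonist mode; 2.5 nM as the 2.5× dilution).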

In assay [3] the test system is testosterone-enhanced ventral prostate and seminal vesicle weights. The experiment in a line: Ventral Prostate and Seminal Vesicle Weight in vivo Assay. Note: key: 'active' if the non weight adjusted prostate weight was ≦40 mg or the % Inhibition prostate weight, body weight adjusted was ≧40% @ 2 mg/day dosage; ID50's, if determined, of ≦15 mg/day also indicated an 'active' compound; listed herein as 'inactive' as they did not meet the specified criteria defined above. Set-up: species or system rat. The settings on record: immature castrated male Sprague Dawley rats, once daily for five days, usually orally 40 mg/kg, with testosterone propionate 2 mg/kg s.c. In short, it runs like this:
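Immature castrated male Sprague Dawley rats (~50 g) were dosed once daily for five days with compound, usually orally at 40 mg/kg in cyclodextrin or methylcellulose vehicle. Testosterone propionate was co-dosed subcutaneously at 2 mg/kg. On day six, ventral prostate and seminal vesicle wet weights were measured; activity was judged on prostate weight or body-weight-adjusted % inhibition.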

The mark [4] stands for this setting: read-out: IC50 (nM), COS Binding.

Several values for one entry are separate records, joined by “and”; a condition that tells them apart may be missing. Equal values may be shown once. Read-outs that look alike come from different tables or passages of the source. Bounds are passed on as bounds.

The inhibition is the relative decrease from the control value, in per cent. The term IC50 denotes the midpoint of a concentration-inhibition curve. With `CCC(O)(CSCC(F)(F)F)c1cc2cc(F)c(C(F)(F)F)cc2[nH]1` (stereo not shown) [Compound 194], the inhibition at 3 µM turned out to be 80% in assay [1] and 40% in assay [2]. Also, the IC50 in assay [1] (setting [4]) worked out at 320 nM. For the same compound, the “% Activity, L929 androgen receptor functional assay” value (shortened to “% Activity”) in assay [2] (3000 nM) amounted to 2%. In assay [3], the “active / inactive: inhibition of testosterone-enhanced prostate weight” value (from here on “active / inactive: inhibition”) is “inactive”.

`CCSCC(C)(O)c1cc2cc(Br)c(C(F)(F)F)cc2[nH]1` (stereo not shown) [Compound 220]: the IC50 in assay [1] (setting [4]) is 34 nM. For the same compound, the inhibition at 3 µM in assay [2] stood at 103%. Further, the “% Activity” value in assay [2] (3000 nM) is reported as −3%. In assay [3], the “active / inactive: inhibition” value was “inactive”.

Turning to `CSCC(C)(O)c1cc2cc([N+](=O)[O-])c(C(F)(F)F)cc2[nH]1` (racemic) [Compound 139], in assay [1], the inhibition at 3 µM was 94% and the “% Inhibition, COS Binding” value was determined as 97%. In addition, the IC50 in assay [1] (setting [4]) was 63 nM and 252 nM. Besides, in assay [2] (3000 nM, 3 µM), the “% Activity” value is 0% and 1%. Further, in assay [3], the “active / inactive: inhibition” value is “active”.

For the compound `CCSCC(C)(O)c1[nH]c2cc(C(F)(F)F)c(C#N)cc2c1C` (single isomer, unassigned) [Compound 234, 2-(2-Ethylsulfanyl-1-hydroxy-1-methyl-ethyl)-3-methyl-6-trifluoromethyl-1H-indole-5-carbonitrile], in assay [1], the “% Inhibition, COS Binding” value was determined as 71%. Further, the IC50 in assay [1] (setting [4]) was found to be 539 nM; in assay [2], 215 nM. The “% Activity” value in assay [2] (3000 nM, 3 µM) was −1%. For the same compound, the “% Inhibition, L929 androgen receptor functional assay” value in assay [2] (antagonist testing with R1881, 3000 nM, 3 µM) is given as 99%. In assay [3], the “active / inactive: inhibition” value was “inactive”.

As for `CCC(O)(CSCC(F)(F)F)c1cc2cc([N+](=O)[O-])c(C(F)(F)F)cc2[nH]1` (stereo not shown) [Compound 185], the inhibition at 3 µM in assay [1] turned out to be 92%; in assay [2], 97%. In assay [1] (setting [4]), the IC50 worked out at 61 nM. The “% Activity” value in assay [2] (3000 nM) amounted to 2%. For the same compound, the “active / inactive: inhibition” value in assay [3] is “active”.

A word on the EC50: it is the concentration giving half of the maximal effect. Turning to `CCS(=O)(=O)CC(C)(O)c1cc2cc(C#N)c(C(F)(F)F)cc2[nH]1` (single isomer, unassigned) [Compound 222, 2-(2-Ethanesulfonyl-1-hydroxy-1-methyl-ethyl)-6-trifluoromethyl-1H-indole-5-carbonitrile], the inhibition at 3 µM in assay [1] amounted to 42%. The IC50 in assay [1] (setting [4]) came to 1580 nM. Besides, in assay [2], the inhibition at 3 µM was 61%, the EC50 was more than 8000 nM and inhibition was half-maximal at 2410 nM (IC50). Also, in assay [2] (@ 8000 nM), the “% Activity” value is 0 @ 8000 nM %. Besides, in assay [3], the “active / inactive: inhibition” value is given as “active”.

For `CCSCC(C)(OC)c1cc2cc(C#N)c(C(F)(F)F)cc2n1C` (stereo not shown) [Compound 235], the inhibition at 3 µM in assay [1] stood at 78%; in assay [2], 95%. In addition, the IC50 in assay [1] (setting [4]) was 520 nM; in assay [2], 1840 nM. The “% Activity” value in assay [2] (3000 nM) was determined as 3%. The “active / inactive: inhibition” value in assay [3] was “inactive”.

In the case of `CCC(O)(CS(=O)(=O)CC(F)(F)F)c1[nH]c2cc(C(F)(F)F)c([N+](=O)[O-])cc2c1Cl` (stereo not shown) [Compound 199], the inhibition at 3 µM in assay [1] worked out at 82%; in assay [2], 59%. Further, the IC50 in assay [1] (setting [4]) was determined as 310 nM. For the same compound, the “% Activity” value in assay [2] (3000 nM) was 2%. In addition, the “active / inactive: inhibition” value in assay [3] was “inactive”.

On to `CCSCC(C)(O)c1cc2cc(C#N)c(C(F)(F)F)cc2n1C` (stereo not shown) [Compound 236], for which the inhibition at 3 µM in assay [1] amounted to 83%; in assay [2], 103%. The IC50 in assay [1] (setting [4]) was 105 nM; in assay [2], 821 nM. In addition, the “% Activity” value in assay [2] (3000 nM) amounted to 2%. In addition, in assay [3], the “active / inactive: inhibition” value is recorded as “active”.

As for `CCSCC(C)(O)c1cc2cc(F)c(C(F)(F)F)cc2[nH]1` (stereo not shown) [Compound 159], the IC50 in assay [1] (setting [4]) was 240 nM. Moreover, in assay [2] (3000 nM), the “% Activity” value amounted to 2%. Moreover, in assay [3], the “active / inactive: inhibition” value was “active”.

In turn, `CC(O)(CSc1ccc(C(=O)O)cc1)c1cc2cc(Cl)c(C(F)(F)F)cc2[nH]1` (stereo not shown) [Compound 133] gave an IC50 in assay [1] (IC50 (nM), COS Binding) of more than 1500 nM. Also, the inhibition at 3 µM in assay [1] turned out to be 65%; in assay [2], 19%. Also, the “% Activity” value in assay [2] (3000 nM) is −4%. Besides, the “active / inactive: inhibition” value in assay [3] is “inactive”.

In the case of `CC(O)(CSCC(F)(F)F)c1cc2cc(Cl)c(C(F)(F)F)cc2[nH]1` (stereo not shown) [Compound 190], the inhibition at 3 µM was 100% in assay [1] and 97% in assay [2]. For the same compound, the IC50 in assay [1] (setting [4]) was 292 nM. For the same compound, in assay [2] (3000 nM), the “% Activity” value came out at 1%. Moreover, the “active / inactive: inhibition” value in assay [3] is “active”.

As to `CCS(=O)(=O)CC(C)(O)c1[nH]c2cc(C(F)(F)F)c(C#N)cc2c1C` (single isomer, unassigned) [Compound 251, 2-(2-Ethanesulfonyl-1-hydroxy-1-methyl-ethyl)-3-methyl-6-trifluoromethyl-1H-indole-5-carbonitrile], in assay [1], the inhibition at 3 µM worked out at 85%. In addition, the values for the IC50 in assay [1] (setting [4]) and in assay [2] were 220 nM and 200 nM, respectively. Moreover, the “% Activity” value in assay [2] (3000 nM, 3 µM) was −1%. In assay [3], the “active / inactive: inhibition” value was “active”.

Consider `CC(O)(CSCC(F)(F)F)c1[nH]c2cc(C(F)(F)F)c([N+](=O)[O-])cc2c1I` (stereo not shown) [Compound 213], for which the inhibition at 3 µM in assay [1] was found to be 71%. In assay [1] (setting [4]), the IC50 is more than 600 nM. Moreover, in assay [2], the inhibition at 3 µM was determined as 92%, the EC50 is more than 8000 nM and the IC50 came out at 372 nM. Also, in assay [2] (@ 8000 nM), the “% Activity” value is recorded as −1 @ 8000 nM %. In addition, the “active / inactive: inhibition” value in assay [3] is on record as “active”.

In the case of `CCSCC(C)(O)c1[nH]c2cc(C(F)(F)F)c(C#N)cc2c1C` (single isomer, unassigned) [Compound 233, 2-(2-Ethylsulfanyl-1-hydroxy-1-methyl-ethyl)-3-methyl-6-trifluoromethyl-1H-indole-5-carbonitrile], in assay [1], the “% Inhibition, COS Binding” value was 95% and 81%. Besides, the IC50 in assay [1] (setting [4]) was 45.6 nM. Also, in assay [2], the inhibition at 3 µM was 97% and the IC50 came out at 69.2 nM. For the same compound, in assay [2] (3000 nM, 3 µM), the “% Activity” value was determined as 0%. Further, the “active / inactive: inhibition” value in assay [3] is given as “active”.

With `O=[N+]([O-])c1cc2cc(C3(O)CCSCC3)[nH]c2cc1C(F)(F)F` [Compound 17], the IC50 in assay [1] (setting [4]) is more than 1500 nM. Moreover, the “active / inactive: inhibition” value in assay [3] was “inactive”.
